Results as given in patent publication US9422283B2, “Salts and polymorphs of a substituted imidazopyridinyl-aminopyridine compound” (ArQule, Inc., priority 2014, dated 2016).
In brackets after ≈: the same amount, converted by molar mass. Entries after “also recorded” stand apart in the source; their conditions may differ. Counter-ions that a name gives are not always drawn.

Experiments:
Type in all cases: physicochemical
[1] = Thermodynamic aqueous solubility
Method: Aqueous solubility was determined by suspending sufficient compound in water to give a maximum final concentration of ≧10 mg/ml of the parent free-form of the compound. The suspension was equilibrated at 25° C. for 24 hours then the pH was measured. The suspension was then filtered through a glass fiber C filter. The filtrate was then diluted by an appropriate factor e.g., 101. Quantitation was by HPLC with reference to a standard solution of approximately 0.25 mg/ml in DMSO. Different volumes of the standard, diluted and undiluted sample solutions were injected. The solubility was calculated using the peak areas determined by integration of the peak found at the same retention time as the principal peak in the standard injection.
Analysis was performed on an Agilent HP1100 series system equipped with a diode array detector and using ChemStation software vB.02.01-SR1.

[2] = Gravimetric Vapor Sorption (GVS)
Method: Sorption isotherms were obtained using a SMS DVS Intrinsic moisture sorption analyzer, controlled by DVS Intrinsic Control software v1.0.0.30. The sample temperature was maintained at 25° C. by the instrument controls. The humidity was controlled by mixing streams of dry and wet nitrogen, with a total flow rate of 200 ml/min. The relative humidity was measured by a calibrated Rotronic probe (dynamic range of 1.0-100% RH), located near the sample. The weight change, (mass relaxation) of the sample as a function of % RH was constantly monitored by the microbalance (accuracy ±0.005 mg).
Typically 5-20 mg of sample was placed in a tared mesh stainless steel basket under ambient conditions. The sample was loaded and unloaded at 40% RH and 25° C. (typical room conditions). A moisture sorption isotherm was performed as outlined below (4 scans giving 2 complete cycles). The standard isotherm was performed at 25° C. at 10% RH intervals over a 0-90% RH range. Data analysis was undertaken in Microsoft Excel using DVS Analysis Suite v6.0.0.7.
The sample was recovered after completion of the isotherm and re-analysed by XRPD. 7.2. Dynamic Vapour Sorption (DVS)

[3] = Storage stability of free base and salts (XRPD, IC, 1H NMR pre- and post-storage)
[4] = Aqueous solubility studies of bis-mesylate forms (slurry in deionised water, HPLC, XRPD)
Method: Purity and concentration analyses were carried out using the following method:
• Pan Number 186003045 Column Temperature: 25° C. Autosampler Temperature: 5° C. Detection: 226 nm Mobile Phase A: 95:5:0.1% Water:Methanol:TFA Mobile Phase B: 95:5:0.1% Methanol:Water:TFA Gradient: See table below for conditions Flow Rate: 1.0 mL/minute Injection Volume: 10 μl Analysis Time: 36 minutes Re-equilibration Time: 4 minutes Data Collection time: 36 minutes Needle Wash: 100% Methanol
Slurries of Form A, Form B, Form C, Form D, Form E and Form I were created in deionised water and shaken for about 24 hours at ambient temperature (about 22° C.). The resulting solutions were then analyzed by HPLC and the aqueous solubility was determined. The remaining solids were analyzed by XRPD to determine if any form changes had occurred during slurrying.

[5] = Dynamic Vapour Sorption (DVS)
Method: Approximately 10 mg of sample was placed into a mesh vapour sorption balance pan and loaded into a DVS-1 dynamic vapour sorption balance by Surface Measurement Systems. The sample was subjected to a ramping profile of 0-90%, 90-0% relative humidity (RH) at 10% increments for anhydrous samples and 30-90%, 90-0%, 0-90%, 90-0% for hydrated samples, maintaining the sample at each step until a stable weight had been achieved (99.5% step completion). The weight changes during the sorption/desorption cycles were plotted, allowing the hygroscopic nature of the sample to be determined.

[6] = Stability testing of bis-mesylate forms for 1 week (XRPD, HPLC purity)
Method: Form A, Form B, Form C, Form D, Form E and Form I were exposed to environments of 40° C./75% RH, ambient light (about 22° C.) and elevated temperature (80° C.) for 1 week to determine the stability. The resulting solids were analyzed by XRPD to establish if any form changes had occurred and by HPLC to determine purity.

[7] = about 24 hours, ambient temperature

## Nc1ncccc1-c1nc2ccc(-c3ccccc3)nc2n1-c1ccc(C2(N)CCC2)cc1 [Compound A HCl salt, 3-(3-(4-(1-aminocyclobutyl)phenyl)-5-phenyl-3H-imidazo[4,5-b]pyridin-2-yl)pyridin-2-amine]
[1]; water, 25 °C, thermodynamic from solid, pH 1.2, max conc. 50 mg/ml
  solubility at 24 h: 8300 µg/mL
[2]; partial run, from 40-90% RH
  GVS water uptake: partial run: ~18 wt % water uptake
[3]; 40° C. and 75% RH, 7 days, 2.2 equi. HCl before storage
  HCl content by IC after storage: IC converted to 1.6 equi. HCl

## Nc1ncccc1-c1nc2ccc(-c3ccccc3)nc2n1-c1ccc(C2(N)CCC2)cc1 [Compound A free base, 3-(3-(4-(1-aminocyclobutyl)phenyl)-5-phenyl-3H-imidazo[4,5-b]pyridin-2-yl)pyridin-2-amine]
[1]
  solubility in water (qualitative): insoluble in water

## Nc1ncccc1-c1nc2ccc(-c3ccccc3)nc2n1-c1ccc(C2(N)CCC2)cc1 [Compound A mesylate salt, 3-(3-(4-(1-aminocyclobutyl)phenyl)-5-phenyl-3H-imidazo[4,5-b]pyridin-2-yl)pyridin-2-amine]
[1]; water, 25 °C, thermodynamic from solid, in 5 min, pH 2.1
  solubility at 5 min: > 50 mg/mL
[2]
  change in XRPD after GVS: No change in XRPD after GVS
[3]; 40° C. and 75% RH, 7 days, XRPD and 1H NMR
  change after storage: No change in XRPD or ^1H NMR

## Nc1ncccc1-c1nc2ccc(-c3ccccc3)nc2n1-c1ccc(C2(N)CCC2)cc1 [Compound A tris-HCl salt, 3-(3-(4-(1-aminocyclobutyl)phenyl)-5-phenyl-3H-imidazo[4,5-b]pyridin-2-yl)pyridin-2-amine]
[1]
  solubility in water (qualitative): highly soluble in water
[3]; stability study under storage, XRPD
  change of salt under storage: partially transformed to bis-HCl salt and/or mono-HCl salt

## Nc1ncccc1-c1nc2ccc(-c3ccccc3)nc2n1-c1ccc(C2(N)CCC2)cc1 [Form 1, 3-(3-(4-(1-aminocyclobutyl)phenyl)-5-phenyl-3H-imidazo[4,5-b]pyridin-2-yl)pyridin-2-amine]
[2]; 0-90% RH
  water uptake (GVS): < 0.8 %, w/w
[2]; FIG. 5 GVS isotherm
  water absorption upon storage: Minimal water absorption
[3]; 25° C. and 0-96% RH, XRPD
  stability under storage: stable
[3]; 40° C. and 75% RH, one week, XRPD
  polymorphic form change on storage: transformed to Form 2

## Nc1ncccc1-c1nc2ccc(-c3ccccc3)nc2n1-c1ccc(C2(N)CCC2)cc1 [Form A, 3-(3-(4-(1-aminocyclobutyl)phenyl)-5-phenyl-3H-imidazo[4,5-b]pyridin-2-yl)pyridin-2-amine]
[4]; [7]
  polymorphic form after slurrying in deionised water (XRPD): converted to Form E
[4]; deionised water, 22 °C, water, thermodynamic from solid, deionised water, about 24 hours, ambient temperature (about 22° C.); read-out: aqueous solubility (HPLC concentration analysis)
  solubility at 24 h: ~383 mg/mL (≈ 886 mM)
[5]
  DVS (summary Table 21): Moderately
  DVS desorption behaviour / hysteresis: No significant hysteresis
  hygroscopicity (DVS): moderate hygroscopicity
  polymorphic form after DVS analysis (XRPD): consistent with Form A; also recorded: Form A post
[5]; up to 70% RH
  DVS water uptake: about 2.4%
[6]; 40° C./75% RH
  HPLC purity after stability test: about 99.8%
  polymorphic form after stability test (XRPD): No change
[6]; 80° C.
  HPLC purity after stability test: about 99.8%
  polymorphic form after stability test (XRPD): No change
[6]; ambient light (about 22° C.)
  polymorphic form after stability test (XRPD): No change
[6]; ambient temperature
  HPLC purity after stability test: about 99.7%

## Nc1ncccc1-c1nc2ccc(-c3ccccc3)nc2n1-c1ccc(C2(N)CCC2)cc1 [Form B, 3-(3-(4-(1-aminocyclobutyl)phenyl)-5-phenyl-3H-imidazo[4,5-b]pyridin-2-yl)pyridin-2-amine]
[4]; [7]
  polymorphic form after slurrying in deionised water (XRPD): converted to Form E
[5]
  DVS (summary Table 21): Gradual uptake
  DVS desorption behaviour / hysteresis: gradual loss from 90% down to 0% RH
[6]; 40° C./75% RH
  HPLC purity after stability test: about 99.8%
  polymorphic form after stability test (XRPD): converted to Form J
[6]; 80° C.
  HPLC purity after stability test: about 99.8%
  polymorphic form after stability test (XRPD): Form I
[6]; ambient light (about 22° C.)
  polymorphic form after stability test (XRPD): remained unchanged
[6]; ambient temperature
  HPLC purity after stability test: about 99.7%

## Nc1ncccc1-c1nc2ccc(-c3ccccc3)nc2n1-c1ccc(C2(N)CCC2)cc1 [Form C, 3-(3-(4-(1-aminocyclobutyl)phenyl)-5-phenyl-3H-imidazo[4,5-b]pyridin-2-yl)pyridin-2-amine]
[4]; [7]
  polymorphic form after slurrying in deionised water (XRPD): converted to Form E
[5]
  DVS (summary Table 21): Non-hygroscopic
  hygroscopicity (DVS): non-hygroscopic
  polymorphic form after DVS analysis (XRPD): consistent with Form C; also recorded: Form C post
[5]; up to 90% RH
  DVS total water uptake: about 0.54%
[6]; 40° C./75% RH
  HPLC purity after stability test: about 99.9%
  polymorphic form after stability test (XRPD): No change
[6]; 80° C.
  HPLC purity after stability test: about 99.9%
  polymorphic form after stability test (XRPD): No change
[6]; ambient light (about 22° C.)
  polymorphic form after stability test (XRPD): No change
[6]; ambient temperature
  HPLC purity after stability test: about 99.9%

## Nc1ncccc1-c1nc2ccc(-c3ccccc3)nc2n1-c1ccc(C2(N)CCC2)cc1 [Form D, 3-(3-(4-(1-aminocyclobutyl)phenyl)-5-phenyl-3H-imidazo[4,5-b]pyridin-2-yl)pyridin-2-amine]
[4]; [7]
  polymorphic form after slurrying in deionised water (XRPD): converted to Form E
[5]
  DVS (summary Table 21): Hydration occurs
  DVS desorption behaviour / hysteresis: gradual loss of water and hence dehydration was observed as the relative humidity was decreased below 40% RH
[5]; second sorption cycle, between 30% and 50% RH, after dehydration at 0% RH
  DVS water uptake: about 12%
[6]; 40° C./75% RH
  HPLC purity after stability test: about 99.9%
  polymorphic form after stability test (XRPD): converted to Form J
[6]; 80° C.
  HPLC purity after stability test: about 99.9%
  polymorphic form after stability test (XRPD): Form I
[6]; ambient light (about 22° C.)
  polymorphic form after stability test (XRPD): remained unchanged
[6]; ambient temperature
  HPLC purity after stability test: about 99.9%

## Nc1ncccc1-c1nc2ccc(-c3ccccc3)nc2n1-c1ccc(C2(N)CCC2)cc1 [Form E, 3-(3-(4-(1-aminocyclobutyl)phenyl)-5-phenyl-3H-imidazo[4,5-b]pyridin-2-yl)pyridin-2-amine]
[4]; 22 °C, water, thermodynamic from solid, deionised water, about 24 hours, ambient temperature (about 22° C.); read-out: aqueous solubility (HPLC concentration analysis)
  solubility at 24 h: ~347 mg/mL (≈ 802 mM)
[4]; [7]
  polymorphic form after slurrying in deionised water (XRPD): remained unchanged; also recorded: Form E
[5]
  DVS (summary Table 21): Two hydration
  DVS desorption behaviour / hysteresis: dehydration occurred below 10% RH
  hygroscopicity (DVS): non-hygroscopic
  polymorphic form after DVS analysis (XRPD): RH Form E post
[5]; second sorption cycle, below 20% RH
  DVS water uptake: about 2.78%
[5]; second sorption cycle, between 20% and 40% RH
  DVS further water uptake: 5.5%
[6]; 40° C./75% RH
  HPLC purity after stability test: about 99.8%
  polymorphic form after stability test (XRPD): remained unchanged
[6]; 80° C.
  HPLC purity after stability test: about 99.8%
  polymorphic form after stability test (XRPD): some differences were observed
[6]; ambient light (about 22° C.)
  polymorphic form after stability test (XRPD): remained unchanged
[6]; ambient temperature
  HPLC purity after stability test: about 99.7%

## Nc1ncccc1-c1nc2ccc(-c3ccccc3)nc2n1-c1ccc(C2(N)CCC2)cc1 [Form I, 3-(3-(4-(1-aminocyclobutyl)phenyl)-5-phenyl-3H-imidazo[4,5-b]pyridin-2-yl)pyridin-2-amine]
[4]; [7]
  polymorphic form after slurrying in deionised water (XRPD): converted to Form E
[5]
  DVS (summary Table 21): Hydration occurs
  DVS desorption behaviour / hysteresis: gradual loss of water/dehydration below 50% RH
  polymorphic form after DVS analysis (XRPD): Form I post
[5]; sorption cycle, between 40% and 50% RH
  DVS water uptake: about 10%
[6]; 40° C./75% RH
  HPLC purity after stability test: about 99.8%
  polymorphic form after stability test (XRPD): conversion to Form J
[6]; 80° C.
  HPLC purity after stability test: about 99.9%
  polymorphic form after stability test (XRPD): remained unchanged
[6]; ambient light (about 22° C.)
  polymorphic form after stability test (XRPD): remained unchanged
[6]; ambient temperature
  HPLC purity after stability test: about 99.6%
